Assay results taken from patent publication US10487068B2, “Pyridazine derivatives as RORc modulators” (Genentech, Inc., priority 2015, dated 2019).
pIC50: −log10 of the molar value.

Target: T1, RORc ligand binding domain (Homo sapiens, UniProt P51449)
T1 sequence (P51449 269-508 limits assumed): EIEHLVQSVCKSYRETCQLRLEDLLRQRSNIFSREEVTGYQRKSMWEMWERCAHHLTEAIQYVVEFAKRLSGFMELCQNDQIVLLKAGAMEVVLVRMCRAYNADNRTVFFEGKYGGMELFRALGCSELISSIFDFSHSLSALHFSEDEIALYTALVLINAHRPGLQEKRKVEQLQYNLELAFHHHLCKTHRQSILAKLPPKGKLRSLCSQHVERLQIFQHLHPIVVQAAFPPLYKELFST
Assay: In Vitro RORc Ligand Binding Assay
Conditions: RORc IC50, radioligand 25-[3H]hydroxycholesterol 6 nM; 0.6 ug/mL RORc receptor; 3 h at 25° C.

Row | SMILES | pIC50
1 | CC1(C)[C@H]2CC[C@]1(c1cccc(-c3n[nH]c(=O)[nH]3)n1)c1nnc(-c3c(F)cccc3F)cc12 [Example 179, 3-(6-((5R,8S)-3-(2,6-difluorophenyl)-9,9-dimethyl-5,6,7,8-tetrahydro-5,8-methanocinnolin-8-yl)pyridin-2-yl)-1H-1,2,4-triazol-5(4H)-one] | 7.82
2 | CC1(C)[C@H]2CC[C@]1(c1cc(-c3cnc(CO)o3)ccn1)c1nnc(-c3c(F)cccc3F)cc12 [Example 235] | 8.03
3 | CC(=O)N1CCC(c2nccc([C@@]34CC[C@@H](c5cc(-c6c(F)cccc6F)nnc53)C4(C)C)n2)CC1 [Example 351] | 7.98
4 | Cc1ncnn1-c1ncc(F)c([C@@]23CC[C@@H](c4cc(-c5c(F)cccc5F)nnc42)C3(C)C)n1 [Example 363] | 7.47
5 | COC(=O)c1nc(C)cc([C@@]23CC[C@@H](c4cc(-c5c(F)cccc5F)nnc42)C3(C)C)n1 [Example 176] | 7.89
6 | CC1(C)[C@H]2CC[C@]1(c1cccc(-c3nnc(CO)[nH]3)n1)c1nnc(-c3c(F)cccc3F)cc12 [Example 150, (5-(6-((5R,8S)-3-(2,6-difluorophenyl)-9,9-dimethyl-5,6,7,8-tetrahydro-5,8-methanocinnolin-8-yl)pyridin-2-yl)-4H-1,2,4-triazol-3-yl)methanol] | 7.65
7 | CC1(C)[C@H]2CC[C@]1(c1ccnc(-n3ccc(CC(N)=O)n3)n1)c1nnc(-c3c(F)cccc3F)cc12 [Example 300] | 7.91
8 | CC1(C)[C@H]2CC[C@]1(c1cncc(-c3cnc(=O)[nH]c3)n1)c1nnc(-c3c(F)cccc3F)cc12 [Example 401, 5-(6-((5R,8S)-3-(2,6-difluorophenyl)-9,9-dimethyl-5,6,7,8-tetrahydro-5,8-methanocinnolin-8-yl)pyrazin-2-yl)pyrimidin-2(1H)-one] | 7.83
9 | CC(C)(O)c1nc(-c2cncc([C@@]34CC[C@@H](c5cc(-c6c(F)cccc6F)nnc53)C4(C)C)n2)oc1Cl [Example 432, 2-(5-chloro-2-(6-((5R,8S)-3-(2,6-difluorophenyl)-9,9-dimethyl-5,6,7,8-tetrahydro-5,8-methanocinnolin-8-yl)pyrazin-2-yl)oxazol-4-yl)propan-2-ol] | 7.74
10 | CC(C)(O)c1nnc(-c2cncc([C@@]34CC[C@@H](c5cc(-c6c(F)cccc6F)nnc53)C4(C)C)n2)[nH]1 [Example 203, 2-(5-(6-((5R,8S)-3-(2,6-difluorophenyl)-9,9-dimethyl-5,6,7,8-tetrahydro-5,8-methanocinnolin-8-yl)pyrazin-2-yl)-4H-1,2,4-triazol-3-yl)propan-2-ol] | 7.61
11 | CC(C)(O)c1coc(-c2ccnc([C@@]34CC[C@@H](c5cc(-c6c(F)cccc6F)nnc53)C4(C)C)n2)n1 [Example 281, 2-(2-(2-((5R,8R)-3-(2,6-difluorophenyl)-9,9-dimethyl-5,6,7,8-tetrahydro-5,8-methanocinnolin-8-yl)pyrimidin-4-yl)oxazol-4-yl)propan-2-ol] | 7.83
12 | CC1(C)[C@H]2CC[C@]1(c1ccnc(-c3cccnc3O)n1)c1nnc(-c3c(F)cccc3F)cc12 [Example 385] | 7.71
13 | CC(C)(O)c1cc(-c2cccc([C@@]34CC[C@@H](c5cc(-c6c(F)cccc6F)nnc53)C4(C)C)n2)[nH]n1 [Example 304, 2-(5-(6-((5R,8S)-3-(2,6-difluorophenyl)-9,9-dimethyl-5,6,7,8-tetrahydro-5,8-methanocinnolin-8-yl)pyridin-2-yl)-1H-pyrazol-3-yl)propan-2-ol] | 8.03
14 | C[C@@H](O)Cc1n[nH]c(-c2cncc([C@@]34CC[C@@H](c5cc(-c6c(F)cccc6F)nnc53)C4(C)C)n2)n1 [Example 279, (R)-1-(5-(6-((5R,8S)-3-(2,6-difluorophenyl)-9,9-dimethyl-5,6,7,8-tetrahydro-5,8-methanocinnolin-8-yl)pyrazin-2-yl)-1H-1,2,4-triazol-3-yl)propan-2-ol] | 7.90
15 | CC(C)(O)c1coc(-c2nccc([C@@]34CC[C@@H](c5cc(-c6c(F)cccc6F)nnc53)C4(C)C)n2)n1 [Example 350] | 7.79
16 | CC1(C)[C@H]2CC[C@]1(c1ccnc(=O)[nH]1)c1nnc(-c3c(F)cccc3F)cc12 [Example 7, 6-((5R,8S)-3-(2,6-difluorophenyl)-9,9-dimethyl-5,6,7,8-tetrahydro-5,8-methanocinnolin-8-yl)pyrimidin-2(1H)-one] | 7.19
17 | CC1(C)[C@H]2CC[C@]1(c1ccnc(-n3cnc(C(N)=O)n3)n1)c1nnc(-c3c(F)cccc3F)cc12 [Example 232] | 7.55
18 | Cc1nnc(-c2cncc([C@@]34CC[C@@H](c5cc(-c6c(F)cccc6F)nnc53)C4(C)C)n2)o1 [Example 35, 2-(6-((5R,8S)-3-(2,6-difluorophenyl)-9,9-dimethyl-5,6,7,8-tetrahydro-5,8-methanocinnolin-8-yl)pyrazin-2-yl)-5-methyl-1,3,4-oxadiazole] | 7.66
19 | C[C@H](O)c1nnc(-c2cccc([C@@]34CC[C@@H](c5cc(-c6c(F)cccc6F)nnc53)C4(C)C)n2)[nH]1 [Example 222, (S)-1-(5-(6-((5R,8S)-3-(2,6-difluorophenyl)-9,9-dimethyl-5,6,7,8-tetrahydro-5,8-methanocinnolin-8-yl)pyridin-2-yl)-4H-1,2,4-triazol-3-yl)ethanol] | 7.96

Row | SMILES | pIC50
20 | CC1(C)[C@H]2CC[C@]1(c1nc(C(F)(F)F)ncc1Br)c1nnc(-c3c(F)cccc3F)cc12 [Example 168] | 7.70
21 | CC1(C)[C@H]2CC[C@]1(c1cc(N)ccn1)c1nnc(-c3c(F)cccc3F)cc12 [Example 71] | 5.82
22 | CNS(=O)(=O)c1nccc([C@@]23CC[C@@H](c4cc(-c5c(F)cccc5F)nnc42)C3(C)C)n1 [Example 183] | 7.81
23 | CC(C)(C)OC(=O)N1CCCC(c2nccc([C@@]34CC[C@@H](c5cc(-c6c(F)cccc6F)nnc53)C4(C)C)n2)C1 (some centres unmarked) [Example 362] | 7.80
24 | CC1(C)[C@H]2CC[C@]1(c1ccnc(OCCO)n1)c1nnc(-c3c(F)cccc3F)cc12 [Example 333] | 8.32
25 | C[C@H](O)Cn1ccc(-c2cncc([C@@]34CC[C@@H](c5cc(-c6c(F)cccc6F)nnc53)C4(C)C)n2)n1 [Example 417, (S)-1-(3-(6-((5R,8S)-3-(2,6-difluorophenyl)-9,9-dimethyl-5,6,7,8-tetrahydro-5,8-methanocinnolin-8-yl)pyrazin-2-yl)-1H-pyrazol-1-yl)propan-2-ol] | 8.25
26 | CC1(C)[C@H]2CC[C@]1(c1ccnc(N3CCO[C@@H](CO)C3)n1)c1nnc(-c3c(F)cccc3F)cc12 [Example 334] | 8.30
27 | CNS(=O)(=O)c1cccc([C@@]23CC[C@@H](c4cc(-c5c(F)cccc5F)nnc42)C3(C)C)n1 [Example 143, 6-((5R,8S)-3-(2,6-difluorophenyl)-9,9-dimethyl-5,6,7,8-tetrahydro-5,8-methanocinnolin-8-yl)-N-methylpyridine-2-sulfonamide] | 8.23
28 | C[C@@H](O)Cc1n[nH]c(-c2cccc([C@@]34CC[C@@H](c5cc(-c6c(F)cccc6F)nnc53)C4(C)C)n2)n1 [Example 311, (R)-1-(5-(6-((5R,8S)-3-(2,6-difluorophenyl)-9,9-dimethyl-5,6,7,8-tetrahydro-5,8-methanocinnolin-8-yl)pyridin-2-yl)-1H-1,2,4-triazol-3-yl)propan-2-ol] | 7.15
29 | CN(CCO)C(=O)c1cccc([C@@]23CC[C@@H](c4cc(-c5c(F)cccc5F)nnc42)C3(C)C)n1 [Example 38, 6-((5R,8S)-3-(2,6-difluorophenyl)-9,9-dimethyl-5,6,7,8-tetrahydro-5,8-methanocinnolin-8-yl)-N-(2-hydroxyethyl)-N-methylpicolinamide] | 7.42
30 | CC1(C)[C@H]2CC[C@]1(c1cncc(-c3nc(C(N)=O)co3)n1)c1nnc(-c3c(F)cccc3F)cc12 [Example 325, 2-(6-((5R,8S)-3-(2,6-difluorophenyl)-9,9-dimethyl-5,6,7,8-tetrahydro-5,8-methanocinnolin-8-yl)pyrazin-2-yl)oxazole-4-carboxamide] | 8.17
31 | CC1(C)[C@H]2CC[C@]1(c1cncc(-c3nc([C@H](O)C(F)(F)F)co3)n1)c1nnc(-c3c(F)cccc3F)cc12 [Example 366, (S)-1-(2-(6-((5R,8S)-3-(2,6-difluorophenyl)-9,9-dimethyl-5,6,7,8-tetrahydro-5,8-methanocinnolin-8-yl)pyrazin-2-yl)oxazol-4-yl)-2,2,2-trifluoroethanol] | 8.46
32 | CC1(C)[C@H]2CC[C@]1(c1ccnc(-n3cnc(C#N)n3)n1)c1nnc(-c3c(F)cccc3F)cc12 [Example 220] | 7.60
33 | COc1ccnc([C@@]23CC[C@@H](c4cc(-c5c(F)cccc5F)nnc42)C3(C)C)n1 [Example 21, (5R,8R)-3-(2,6-difluorophenyl)-8-(4-methoxypyrimidin-2-yl)-9,9-dimethyl-5,6,7,8-tetrahydro-5,8-methanocinnoline] | 7.62
34 | CC1(C)[C@H]2CC[C@]1(c1cccc(-c3ccn[nH]3)n1)c1nnc(-c3c(F)cccc3F)cc12 [Example 213] | 8.21
35 | CC1(C)[C@H]2CC[C@]1(c1ccnc(N3CCOCC3)n1)c1nnc(-c3c(F)cccc3F)cc12 [Example 328] | 8.66
36 | CC1(C)[C@H]2CC[C@]1(c1cc(C(=O)O)ccn1)c1nnc(-c3c(F)cccc3F)cc12 [Example 53] | 6.32
37 | CC1(C)[C@H]2CC[C@]1(c1cc(-c3nnc(CO)o3)ccn1)c1nnc(-c3c(F)cccc3F)cc12 [Example 75] | 6.78
38 | CC(C)(O)c1nnc(-c2cncc([C@@]34CC[C@@H](c5cc(-c6c(F)cccc6F)nnc53)C4(C)C)n2)o1 [Example 260, 2-(5-(6-((5R,8S)-3-(2,6-difluorophenyl)-9,9-dimethyl-5,6,7,8-tetrahydro-5,8-methanocinnolin-8-yl)pyrazin-2-yl)-1,3,4-oxadiazol-2-yl)propan-2-ol] | 7.91
